Values quoted from earlier work in patent US20170298446A1, “BIOMARKERS OF BRUTON TYROSINE KINASE INHIBITOR RESISTANCE” (OHIO STATE INNOVATION FOUNDATION, priority 2014, published 2017).

Biological target: BTK (Homo sapiens, UniProt Q06187)
Sequence (Q06187 whole entry): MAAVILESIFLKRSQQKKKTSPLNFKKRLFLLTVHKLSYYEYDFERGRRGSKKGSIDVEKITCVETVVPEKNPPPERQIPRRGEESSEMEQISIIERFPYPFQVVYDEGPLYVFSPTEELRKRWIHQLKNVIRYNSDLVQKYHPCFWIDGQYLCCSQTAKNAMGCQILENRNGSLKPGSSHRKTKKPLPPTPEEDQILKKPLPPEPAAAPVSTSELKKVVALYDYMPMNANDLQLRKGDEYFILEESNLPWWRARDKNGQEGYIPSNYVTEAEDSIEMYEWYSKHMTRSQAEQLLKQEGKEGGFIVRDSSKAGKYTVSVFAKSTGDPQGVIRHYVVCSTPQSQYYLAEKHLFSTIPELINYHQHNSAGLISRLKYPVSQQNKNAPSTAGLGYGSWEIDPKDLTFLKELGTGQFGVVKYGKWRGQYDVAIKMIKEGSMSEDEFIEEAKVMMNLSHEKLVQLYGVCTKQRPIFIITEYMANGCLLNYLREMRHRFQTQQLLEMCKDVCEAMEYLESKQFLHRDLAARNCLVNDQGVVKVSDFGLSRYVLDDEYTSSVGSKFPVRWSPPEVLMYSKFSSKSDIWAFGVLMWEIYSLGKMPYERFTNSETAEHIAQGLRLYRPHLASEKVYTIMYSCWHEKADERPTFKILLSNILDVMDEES

SMILES: CC(C)(C)c1ccc(C(=O)Nc2cccc(-c3cn4ccnc4c(Nc4ccccc4)n3)c2)cc1 [CGI-560, 4-(tert-butyl)-N-(3-(8-(phenylamino)imidazo[1,2-a]pyrazin-6-yl)phenyl)benzamide]
- selectivity for BTK: > 10 fold
